Measured values published in patent publication US20130131139A1, “ROR1 AS A GENE TARGET IN ACUTE LYMPHOBLASTIC LEUKEMIA” (Oregon Health & Science University, priority 2011, published 2013).

Test system: leukemia cells from eight other ALL patients
Assay: Dasatinib cell viability (MTS assay), primary cells of other ALL subsets
Format: cell-based
Conditions: Homo sapiens, 72 h; eight other ALL samples; highest tested concentration 1000 nM; 3 days

Question: Which IC50 does the source give for Cc1nc(Nc2ncc(C(=O)Nc3c(C)cccc3Cl)s2)cc(N2CCN(CCO)CC2)n1 [dasatinib] here?
Answer: Its IC50 is > 1000 nM.
